Positions of bridges follow the written chain, without caps; N, C: chain ends. Non-standard residues stand in square brackets, D forms with d. Residues, ends and D or L forms follow the SMILES beside them. Phe(4-OC2H4NH2,2,3-(CH2)3) = NCCOc1ccc(C[C@H](N)C(=O)O)c2c1CCC2; Trp(7-cPr) = N[C@@H](Cc1c[nH]c2c(C3CC3)cccc12)C(=O)O; Trp(7-Me) = Cc1cccc2c(C[C@H](N)C(=O)O)c[nH]c12; 2Nal = N[C@@H](Cc1ccc2ccccc2c1)C(=O)O; Thp(SO2) = NC1(C(=O)O)CCS(=O)(=O)CC1; AEF = NCCOc1ccc(C[C@H](N)C(=O)O)cc1; 3Pal = N[C@@H](Cc1cccnc1)C(=O)O; Cit = NC(=O)NCCC[C@H](N)C(=O)O; Pen = CC(C)(S)[C@H](N)C(=O)O; Dab = NCC[C@H](N)C(=O)O; Thp = NC1(C(=O)O)CCOCC1; Sar = CNCC(=O)O
Tests used:
IL-23R = target: T1, IL-23R (Homo sapiens, UniProt Q5VWK5); assay: IL-23R reporter gene assay (HEK-blue IL23 reporter gene cell line, rhIL23 stimulation); format: cell-based; conditions: Inhibition of IL-23R, rhIL23 1 ng/mL, 24 hours
T1 construct: host or cells: HEK-blue IL23 reporter gene cell line
T1 sequence (Q5VWK5 24-629): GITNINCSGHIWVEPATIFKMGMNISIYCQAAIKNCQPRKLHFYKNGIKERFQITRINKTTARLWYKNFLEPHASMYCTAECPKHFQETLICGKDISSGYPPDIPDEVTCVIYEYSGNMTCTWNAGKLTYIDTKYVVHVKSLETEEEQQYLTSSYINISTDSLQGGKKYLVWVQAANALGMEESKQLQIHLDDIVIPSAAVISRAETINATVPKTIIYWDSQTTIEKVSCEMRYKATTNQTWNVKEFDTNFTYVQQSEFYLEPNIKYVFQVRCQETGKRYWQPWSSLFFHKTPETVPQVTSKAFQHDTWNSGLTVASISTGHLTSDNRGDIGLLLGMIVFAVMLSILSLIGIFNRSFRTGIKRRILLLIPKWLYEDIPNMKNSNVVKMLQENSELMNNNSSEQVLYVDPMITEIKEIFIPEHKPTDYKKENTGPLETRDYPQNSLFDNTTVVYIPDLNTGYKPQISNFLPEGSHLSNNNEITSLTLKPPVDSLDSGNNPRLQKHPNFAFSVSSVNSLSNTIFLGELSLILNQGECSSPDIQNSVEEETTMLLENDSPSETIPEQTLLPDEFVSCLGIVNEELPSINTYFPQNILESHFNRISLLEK
Experimental: 2. IL-23R reporter gene assay
The purpose of this assay was to assess the ability of compounds to inhibit the binding of IL23p19 to IL23R in a reporter gene system. The HEK-blue IL23 reporter gene cell line (Invivogen, hkb-il23) was cultured in DMEM + 10% FBS + 100 ug/mL Normocin medium. When the cell density reached 80%-90%, 5000 cells/well were plated into a 384-well plate, and the plate was incubated overnight at 37°C with 5% CO2. Then, the compound stock solution was diluted in DMSO, and 40 nL of the dilution was transferred into the 384-well culture plate by Echo. The plate was incubated at 37°C with 5% CO2 for 0.5 hours. 40 nL/well of rhIL23 (R&D, 1290-IL) was added to the 384-well cell culture plate at a final concentration of 1 ng/mL, and the plate was incubated at 37°C with 5% CO2 for 24 hours. 18 µL of Quanti-Blue™ solution was added to a new 384-well plate. 2 µL/well of cell culture supernatant was transferred into the 384-well plate prepared in Step 6, and the plate was incubated at 37°C with 5% CO2 for 1 hour. Absorbance values at […] were read on BMG. The binding ability of the compounds was assessed using the following formula, and IC50 values were obtained by fitting with Graphpad.
(§1) Calculation formula of inhibition rate: [formula] • where Data negative: mean of DMSO control group; and • Data positive: mean of non-IL23-stimulated group
The calculation formula of IC50 was as follows: Y = Bottom + (Top−Bottom)/(1+10^(∧)((LogIC50−X)*HillSlope)) [formula] • where X: concentration of compound; and • Y: inhibition rate of compound Table 2. Inhibition of IL-23R by test compounds

IL-23α/IL-12β and IL-23R = target: T2, IL-23α/IL-12β and IL-23R (Homo sapiens, UniProt Q5VWK5); assay: IL-23α/IL-12β and IL-23R binding assay (TR-FRET/HTRF); conditions: inhibition of the binding of IL-23α/IL-12β to IL-23R, TR-FRET; both proteins 0.3 nM
T2 construct: purchased ACRO ILR-H82F3 (IL-23R); ILB-H52W5 (IL-23α/IL-12β)
T2 sequence (Q5VWK5 24-353 limits assumed): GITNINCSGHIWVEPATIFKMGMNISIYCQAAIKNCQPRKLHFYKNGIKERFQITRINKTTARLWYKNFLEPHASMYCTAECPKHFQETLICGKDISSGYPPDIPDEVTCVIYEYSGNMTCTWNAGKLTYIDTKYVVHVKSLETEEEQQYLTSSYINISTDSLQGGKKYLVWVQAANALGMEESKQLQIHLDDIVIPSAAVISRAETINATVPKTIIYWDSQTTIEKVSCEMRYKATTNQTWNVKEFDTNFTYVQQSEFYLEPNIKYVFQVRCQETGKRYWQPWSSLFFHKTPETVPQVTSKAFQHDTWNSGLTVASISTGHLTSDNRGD
Procedure, shortened: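 TR-FRET with IL-23α/IL-12β and IL-23R each at 0.3 nM in PPI buffer; compound preincubated with IL-23α/IL-12β 60 min at 25°C, then IL-23R and Tb/d2 detection reagents added for 60 min. HTRF 665/620 ratio; IC50 by nonlinear regression.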

[1] = target: (Homo sapiens, UniProt Q5VWK5); assay: IL-23-stimulated pSTAT3 detection assay in PBMCs (ELISA); format: cell-based; conditions: rhIL23 stimulation 30 minutes, read-out: pSTAT3 inhibition/IC50
Experimental: 3. IL-23-stimulated pSTAT3 detection assay in PBMCs
Cryopreserved human PBMCs were thawed, and seeded onto a plate previously covered with an anti-CD3 antibody at 1 × 10^6 cells/well. Then, an anti-CD28 antibody was added to the plate, and the cells were incubated at 37°C with 5% CO2 for 5 days. On Day 5, the cells were seeded onto a 96-well plate at a density of 100K cells/well after 4 hours of stimulation by FBS starvation. The diluted Compound was transferred into the 96-well cell culture plate, and the plate was incubated at 37°C with 5% CO2 for 1 hour. rhIL23 (R&D, 1290-IL) was added to the cell culture plate, and the plate was incubated at 37°C with 5% CO2 for 30 minutes. The cells in the wells were lysed on ice with a lysis buffer containing 1× PHOSstop solution for 30 minutes, and the plate was centrifuged at 1000 rpm for 1 minute. Then, the supernatant was transferred into a 96-well ELISA plate, and pSTAT3 ELISA assay was performed according to the instructions of the kit (CST, 7300CA). Absorbance values at […] were read on PHERAstar FSX (BMG LRBTECH). The inhibition rate of the compounds was assessed using the following formula, and IC50 values were obtained by fitting with Graphpad.
as §1
The calculation formula of IC50 was as follows: Y = Bottom + (Top−Bottom)/(1+10^(∧)((LogIC50−X)*HillSlope)) [formula] • where X: concentration of compound; and • Y: inhibition rate of compound. Table 3. pSTAT3 inhibition

[2] = Pharmacokinetic test in mice (intravenous and intragastric, plasma LC-MS/MS); format: in vivo; conditions: male, mouse, Balb/c mice
Experimental: 4. Pharmacokinetic test in mice
4.1. Experimental animals: Male Balb/c mice (20-25 g, 18 mice/compound) were purchased from Chengdu Dossy Experimental Animals Co., Ltd.
4.2. Experimental design: On the day of the experiment, the Balb/c mice were randomly grouped by body weight. The animals were fasted with water available for 12-14 h one day before the administration, and were fed 4 h after the administration. Table 4. Administration information
Before and after administration, 0.06 mL of blood was taken from the orbit under isoflurane anaesthesia, and placed in an EDTAK2 centrifuge tube. The tube was centrifuged at 5000 rpm at 4°C for 10 min, and plasma was collected. The blood collection time points for the intravenous group and intragastric group were both 0 min, 5 min, 15 min, 30 min, 1 h, 2 h, 4 h, 6 h, 8 h, and 24 h. Before analysis and detection, all samples were stored at -80°C, and the samples were quantitatively analysed by LC-MS/MS. Table 5. Pharmacokinetic parameters of test compounds in mouse plasma

Sequence of (Homo sapiens, UniProt Q5VWK5) (Q9NPF7 20-189 partner, other chains not shown): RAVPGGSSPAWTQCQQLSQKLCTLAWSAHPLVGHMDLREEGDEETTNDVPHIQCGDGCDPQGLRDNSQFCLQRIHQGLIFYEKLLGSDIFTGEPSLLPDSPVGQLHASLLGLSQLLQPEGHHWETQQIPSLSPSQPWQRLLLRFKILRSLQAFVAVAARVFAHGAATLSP
Sequence of (Homo sapiens, UniProt Q5VWK5) (P29460 23-328 partner, other chains not shown): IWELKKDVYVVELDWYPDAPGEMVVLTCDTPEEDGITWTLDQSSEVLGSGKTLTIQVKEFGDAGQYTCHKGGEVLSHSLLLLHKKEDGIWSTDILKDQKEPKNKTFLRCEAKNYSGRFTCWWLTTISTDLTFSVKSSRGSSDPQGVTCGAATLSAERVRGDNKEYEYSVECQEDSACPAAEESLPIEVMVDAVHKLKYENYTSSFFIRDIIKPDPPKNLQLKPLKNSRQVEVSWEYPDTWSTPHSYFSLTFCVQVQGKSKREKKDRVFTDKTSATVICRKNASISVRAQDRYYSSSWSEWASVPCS

SMILES | IC50 (IL-23R) | IC50 (IL-23α/IL-12β and IL-23R) | IC50 [1] | AUC(0-t) ([2]; iv, i.v. (1 mg/kg)) | clearance ([2]; iv, i.v. (1 mg/kg)) | Vd ([2]; iv, i.v. (1 mg/kg), read-out: Vdss) | AUC(0-t) ([2]; po, i.g. (10 mg/kg)) | bioavailability ([2]; po, i.g. (10 mg/kg))
CC(=O)N[C@@H]1C(=O)N[C@@H](Cc2c[nH]cn2)C(=O)N[C@@H]([C@@H](C)O)C(=O)N[C@@H](Cc2c[nH]c3c(C)cccc23)C(=O)N[C@@H](CCC(N)=O)C(=O)N[C@H](C(=O)N[C@@H](Cc2ccc(OCCN)cc2)C(=O)N[C@@H](Cc2ccc3ccccc3c2)C(=O)NC2(C(=O)N[C@@H](CCC(=O)O)C(=O)N[C@@H](CC(N)=O)C(=O)N[C@@H](Cc3cccnc3)C(=O)N(C)CC(N)=O)CCOCC2)C(C)(C)SSC1(C)C [Compound 1] (Ac-[Pen]HT[Trp(7-Me)]Q[Pen][AEF][2Nal][Thp]EN[3Pal][Sar]-NH2; disulfide 1-6) | 1100 pM | 64.2 pM | 7.1 pM | – | – | – | – | –
CC(=O)N[C@@H]1C(=O)N[C@@H](Cc2c[nH]cn2)C(=O)N[C@@H]([C@@H](C)O)C(=O)N[C@@H](Cc2c[nH]c3c(C)cccc23)C(=O)N[C@@H](CCCNC(N)=O)C(=O)N[C@H](C(=O)N[C@@H](Cc2ccc(OCCN)cc2)C(=O)N[C@@H](Cc2ccc3ccccc3c2)C(=O)NC2(C(=O)N[C@@H](CCC(=O)O)C(=O)N[C@@H](CC(N)=O)C(=O)N[C@@H](Cc3cccnc3)C(=O)N(C)CC(N)=O)CCOCC2)C(C)(C)SSC1(C)C [Compound 2] (Ac-[Pen]HT[Trp(7-Me)][Cit][Pen][AEF][2Nal][Thp]EN[3Pal][Sar]-NH2; disulfide 1-6) | 1210 pM | 76.8 pM | 6.8 pM | – | – | – | – | –
CC(=O)NCCCC[C@@H]1NC(=O)[C@H](Cc2c[nH]c3c(C)cccc23)NC(=O)[C@H]([C@@H](C)O)NC(=O)[C@H](Cc2c[nH]cn2)NC(=O)[C@@H](NC(C)=O)C(C)(C)SSC(C)(C)[C@@H](C(=O)N[C@@H](Cc2ccc(OCCN)cc2)C(=O)N[C@@H](Cc2ccc3ccccc3c2)C(=O)NC2(C(=O)N[C@@H](CCC(=O)O)C(=O)N[C@@H](CC(N)=O)C(=O)N[C@@H](Cc3cccnc3)C(=O)N(C)CC(N)=O)CCOCC2)NC1=O [Compound 3] (Ac-[Pen]HT[Trp(7-Me)]K(Ac)[Pen][AEF][2Nal][Thp]EN[3Pal][Sar]-NH2; disulfide 1-6) | 1360 pM | 174 pM | 6.6 pM | – | – | – | – | –
CC(=O)N[C@@H]1C(=O)N[C@@H](Cc2c[nH]cn2)C(=O)N[C@@H]([C@@H](C)O)C(=O)N[C@@H](Cc2c[nH]c3c(C4CC4)cccc23)C(=O)N[C@@H](CCC(N)=O)C(=O)N[C@H](C(=O)N[C@@H](Cc2ccc(OCCN)cc2)C(=O)N[C@@H](Cc2ccc3ccccc3c2)C(=O)NC2(C(=O)N[C@@H](CCC(=O)O)C(=O)N[C@@H](CC(N)=O)C(=O)N[C@@H](Cc3cccnc3)C(=O)N(C)CC(N)=O)CCOCC2)C(C)(C)SSC1(C)C [Compound 13] (Ac-[Pen]HT[Trp(7-cPr)]Q[Pen][AEF][2Nal][Thp]EN[3Pal][Sar]-NH2; disulfide 1-6) | 3120 pM | 38.4 pM | 1 pM | – | – | – | – | –
CC(=O)N[C@@H]1C(=O)N[C@@H](Cc2c[nH]cn2)C(=O)N[C@@H]([C@@H](C)O)C(=O)N[C@@H](Cc2c[nH]c3c(C)cccc23)C(=O)N[C@@H](CCC(N)=O)C(=O)N[C@H](C(=O)N[C@@H](Cc2ccc(OCCN)c3c2CCC3)C(=O)N[C@@H](Cc2ccc3ccccc3c2)C(=O)NC2(C(=O)N[C@@H](CCC(=O)O)C(=O)N[C@@H](CC(N)=O)C(=O)N[C@@H](Cc3cccnc3)C(=O)N(C)CC(N)=O)CCS(=O)(=O)CC2)C(C)(C)SSC1(C)C [Compound 15] (Ac-[Pen]HT[Trp(7-Me)]Q[Pen][Phe(4-OC2H4NH2,2,3-(CH2)3)][2Nal][Thp(SO2)]EN[3Pal][Sar]-NH2; disulfide 1-6) | 5260 pM | 75 pM | 6.2 pM | – | – | – | – | –
CC(=O)N[C@@H]1C(=O)N[C@@H](Cc2c[nH]cn2)C(=O)N[C@@H]([C@@H](C)O)C(=O)N[C@@H](Cc2c[nH]c3c(C4CC4)cccc23)C(=O)N[C@@H](CCC(N)=O)C(=O)N[C@H](C(=O)N[C@@H](Cc2ccc(OCCN)c3c2CCC3)C(=O)N[C@@H](Cc2ccc3ccccc3c2)C(=O)NC2(C(=O)N[C@@H](CCC(=O)O)C(=O)N[C@@H](CC(N)=O)C(=O)N[C@@H](Cc3cccnc3)C(=O)N(C)CC(N)=O)CCS(=O)(=O)CC2)C(C)(C)SSC1(C)C [Compound 16] (Ac-[Pen]HT[Trp(7-cPr)]Q[Pen][Phe(4-OC2H4NH2,2,3-(CH2)3)][2Nal][Thp(SO2)]EN[3Pal][Sar]-NH2; disulfide 1-6) | 6070 pM | 63 pM | 6.9 pM | 5440 ± 220 ng·h/mL | 3.06 ± 0.13 mL/min/kg | 0.378 ± 0.022 L/kg | 143 ± 13 ng·h/mL | 0.263 ± 0.023%
CC(=O)N[C@H]1CC(=O)NCC[C@@H](C(=O)N[C@@H](Cc2ccc(OCCN)cc2)C(=O)N[C@@H](Cc2ccc3ccccc3c2)C(=O)NC2(C(=O)N[C@@H](CCC(=O)O)C(=O)N[C@@H](CC(N)=O)C(=O)N[C@@H](Cc3cccnc3)C(=O)N(C)CC(N)=O)CCOCC2)NC(=O)[C@H](CCC(N)=O)NC(=O)[C@H](Cc2c[nH]c3c(C)cccc23)NC(=O)[C@H]([C@@H](C)O)NC(=O)[C@H](Cc2c[nH]cn2)NC1=O [Compound 22] (Ac-DHT[Trp(7-Me)]Q[Dab][AEF][2Nal][Thp]EN[3Pal][Sar]-NH2; lactam 1-6) | – | 129 pM | 15.7 pM | – | – | – | – | –
